From patent US7829063B2, “Development of molecular imaging probes for carbonic anhydrase-IX using click chemistry” (Siemens Medical Solutions USA, Inc., priority 2007, dated 2010) come the findings set out here.

One assay addresses T1, CA-IX (Homo sapiens, UniProt Q16790).
T1 construct: His tag (C); purchased R&D Systems Inc. 2188-CA; host or cells: mouse myeloma cell line NS0
The experiment in a line: CA-IX combinatorial library screening, competitive fluorescence-based assay with dansylamide (DNSA). Type of assay: binding. To be noted: 1 h; Table 1, Libraries 1-3; sample concentrations 100 nM and 1000 nM, DNSA 200 μM; screening at 1 μM; read-out: In Vitro Binding Assay (Library Screening). As to the method: General. CA-IX human recombinant enzyme was expressed with a C-terminal His tag in a mouse myeloma cell line, NS0 (R&D Systems Inc., catalog number 2188-CA). The human red blood cells were obtained from Research Blood Components, LLC. All absorbance measurements were performed on a SPECTRA MAX M2 plate reader at 25° C. The LC/MS analyses were performed on an Agilent 1100 series LC/MSD (SL) using a 30×2.1 mm Zorbax C8 column with a Phenomenex C18 pre-column. Compound detection was accomplished by electrospray mass spectroscopy in positive selected ion mode (LC/MS-SIM). The elution solvents were acetonitrile and water, contained 0.05% TFA. Nuclear magnetic resonance (NMR) spectra were obtained on a Bruker AMX 300 MHz spectrometer or a Varian 400. 19F NMR spectra were recorded on a Bruker AMX 282.35 MHz or a Varian 400 spectrometer. The mass spectra were recorded on an Agilent 1100 series LC/MSD with electrospray mass spectroscopic detection. Flash column chromatography was performed on Merck silica gel (40-63 μm) using the solvent system indicated. The radiochemical and chemical purities were analyzed by RP-HPLC.
General Combinatorial Library Screening Protocol for CA-IX
The CA-IX screening assay was employed for testing libraries derived from the various “anchor” molecules, using ethoxzolamide as a positive control. The assay was performed at a substrate (dansylamide, DNSA) concentration of 200 μM, and sample concentrations of 100 nM and 1000 nM, respectively. A modified competitive fluorescence-based assay (A. Jain, S. G. Huang, G. M. Whitesides, J. Am. Chem. Soc. 1994, 116, 5057) was used to measure CA-IX activity. The enzymatic assay was carried out in a 96-well plate. To the wells, deionized water, 40 μL of phosphate buffer (250 mM, pH 7.4), 2.4 μL of CA-IX (17 μM), and 2 μL or 20 μL of inhibitor (concentration of 100 nM or 1000 nM) were added to achieve a final volume of 180 μL. Reactions were initiated by adding 20 μL DNSA (200 μM) to each well and the plate was incubated at 25° C. for 1 hour. The fluorescence intensities from each well of the plate were then read at 460 nm using a plate reader with an excitation wavelength of 290 nm.
On to `CCCOC(=O)c1ccc(NC(=O)Cn2cc(CNC(=O)c3ccc(S(N)(=O)=O)cc3)nn2)cc1` [DHK57], for which the inhibition at 1 µM is under 40%.

For the compound `CC(C)[C@@H](C(=O)O)n1cc(CNC(=O)c2ccc(S(N)(=O)=O)cc2)nn1` [DHK60], the inhibition at 1 µM was under 40%.

Turning to `Cc1ccc(C)c(CNC(=O)[C@H](Cc2ccccc2)n2cc(COc3ccc4nc(S(N)(=O)=O)sc4c3)nn2)c1` [DHK120], the inhibition at 1 µM was under 40%.

As for `NCCCn1cc(CNC(=O)c2ccc(S(N)(=O)=O)cc2)nn1` [DHK95], the inhibition at 1 µM is under 40%.

Consider `NS(=O)(=O)c1ccc(C(=O)NCc2cn(CC(=O)NC(Cc3cnc[nH]3)C(=O)O)nn2)cc1` (centres unmarked) [DHK92], for which the inhibition at 1 µM is under 40%.

As for `NS(=O)(=O)c1ccc(C(=O)NCc2cn(C3CCN(C(=O)/C=C/c4ccccc4)CC3)nn2)cc1` [DHK97], the inhibition at 1 µM is under 40%.

Regarding `NS(=O)(=O)c1ccc(C(=O)NCc2cn(C3C(O)C(O)OC3C(O)CO)nn2)cc1` (centres unmarked) [DHK112], the inhibition at 1 µM is under 40%.

Consider `Cc1ccnc(NC(=O)[C@H](Cc2ccccc2)n2cc(CNC(=O)c3ccc(S(N)(=O)=O)cc3)nn2)c1` [DHK36], for which the inhibition at 1 µM was under 40%.

With `CC1CCCN(C(=O)C(C(C)C)n2cc(COc3ccc4nc(S(N)(=O)=O)sc4c3)nn2)C1` (centres unmarked) [DHK119], the inhibition at 1 µM is under 40%.

Consider `NS(=O)(=O)c1ccc(-c2cn(C3CCN(C(=O)/C=C/c4ccccc4)CC3)nn2)cc1` [DHK82], for which the inhibition at 1 µM was under 40%.

For the compound `CC(CN(C)C)Cn1cc(CNC(=O)c2ccc(S(N)(=O)=O)cc2)nn1` (centres unmarked) [DHK43], the inhibition at 1 µM was under 40%.

For `CC(C)[C@@H](C(=O)NCc1cc(F)ccc1F)n1cc(-c2ccc(S(N)(=O)=O)cc2)nn1` [DHK11], the inhibition at 1 µM was under 40%.

Turning to `NS(=O)(=O)c1ccc(-c2cn(CCn3c(=O)[nH]c4ccccc4c3=O)nn2)cc1` [DHK78], the inhibition at 1 µM was under 40%.

On to `NS(=O)(=O)c1ccc(-c2cn(CC(=O)Nc3nccs3)nn2)cc1` [DHK101], for which the inhibition at 1 µM is under 40%.

As to `NS(=O)(=O)c1ccc(C(=O)NCc2cn(C(c3ccccc3)[C@@H](OC/C=C/c3ccccc3)c3ccccc3)nn2)cc1` (some centres unmarked) [DHK90], the inhibition at 1 µM was under 40%.

Turning to `CCCOC(=O)c1ccc(NC(=O)Cn2cc(-c3ccc(S(N)(=O)=O)cc3)nn2)cc1` [DHK3], the inhibition at 1 µM is under 40%.

As for `NS(=O)(=O)c1nc2ccc(OCc3cn(CCn4c(=O)[nH]c5ccccc5c4=O)nn3)cc2s1` [DHK140], the inhibition at 1 µM is under 40%.

For `CCOC(=O)c1ccc(Cn2cc(CNC(=O)c3ccc(S(N)(=O)=O)cc3)nn2)cc1` [DHK51], the inhibition at 1 µM is under 40%.

On to `CC(C)[C@@H](C(=O)NCc1ccccc1)n1cc(CNC(=O)c2ccc(S(N)(=O)=O)cc2)nn1` [DHK52], for which the inhibition at 1 µM is under 40%.

As for `C=CC1C[N@@]2CCC1CC2[C@@H](c1ccnc2ccc(OC)cc12)n1cc(-c2ccc(S(N)(=O)=O)cc2)nn1` (some centres unmarked) [DHK72], the inhibition at 1 µM is under 40%.

With `CC1CCCN(C(=O)C(C(C)C)n2cc(CNC(=O)c3ccc(S(N)(=O)=O)cc3)nn2)C1` (centres unmarked) [DHK44], the inhibition at 1 µM was under 40%.

Still in this assay, the particulars now being: 1 h; Table 2, Libraries 4-7; sample concentrations 100 nM and 1000 nM, DNSA 200 μM; screening at 1 μM; read-out: In Vitro Binding Assay (Library (Screening)).
Turning to `CC(C)[C@@H](C(=O)NCc1ccccn1)n1cc(COc2ccc3nc(S(N)(=O)=O)sc3c2)nn1` [DHK-2-35], the inhibition at 1 µM was under 40%.

For the compound `CCOC(=O)[C@@H](NC(=O)[C@H](C(C)C)n1cc(-c2ccc(S(N)(=O)=O)cc2)nn1)C(C)C` [DHK176], the inhibition at 1 µM was under 40%.

Take `CC(C)[C@@H](C(=O)NCCCO)n1cc(-c2ccc(S(N)(=O)=O)cc2)nn1` [DHK181]: the inhibition at 1 µM is under 40%.

Consider `COC(=O)C(C)NC(=O)[C@H](C(C)C)n1cc(COc2ccc3nc(S(N)(=O)=O)sc3c2)nn1` (some centres unmarked) [DHK-2-34], for which the inhibition at 1 µM is under 40%.

In the case of `NS(=O)(=O)c1nc2ccc(OCc3cn([C@@H](Cc4ccccc4)C(=O)N4CCN(c5ccccn5)CC4)nn3)cc2s1` [DHK-2-58], the inhibition at 1 µM is under 40%.

As for `CC(C)[C@@H](C(=O)NCCCO)n1cc(COc2ccc3nc(S(N)(=O)=O)sc3c2)nn1` [DHK-2-38], the inhibition at 1 µM was under 40%.

On to `CN(Cc1ccccc1)C(=O)[C@H](Cc1ccccc1)n1cc(COc2ccc3nc(S(N)(=O)=O)sc3c2)nn1` [DHK-2-53], for which the inhibition at 1 µM was under 40%.

As to `NS(=O)(=O)c1ccc(-c2cn([C@@H](Cc3ccccc3)C(=O)NCC3COc4ccccc4O3)nn2)cc1` (some centres unmarked) [DHK-2-20], the inhibition at 1 µM was under 40%.

Consider `CC(C)[C@@H](C(=O)N[C@@H]1c2ccccc2C[C@@H]1O)n1cc(COc2ccc3nc(S(N)(=O)=O)sc3c2)nn1` [DHK-2-43], for which the inhibition at 1 µM is under 40%.

In the case of `CC(C)[C@@H](C(=O)N1CCN(CCO)CC1)n1cc(COc2ccc3nc(S(N)(=O)=O)sc3c2)nn1` [DHK-2-42], the inhibition at 1 µM was under 40%.

On to `NS(=O)(=O)c1nc2ccc(OCc3cn([C@@H](Cc4ccccc4)C(=O)N4CCC(N5CCCC5)CC4)nn3)cc2s1` [DHK-2-72], for which the inhibition at 1 µM is under 40%.

With `NS(=O)(=O)c1ccc(-c2cn([C@@H](Cc3ccccc3)C(=O)N3CCN(c4ccccn4)CC3)nn2)cc1` [DHK-2-7], the inhibition at 1 µM is under 40%.

Regarding `NS(=O)(=O)c1ccc(-c2cn([C@@H](Cc3ccccc3)C(=O)N3CCC(CCO)CC3)nn2)cc1` [DHK-2-18], the inhibition at 1 µM was under 40%.

Turning to `NS(=O)(=O)c1ccc(-c2cn([C@@H](Cc3ccccc3)C(=O)NCc3ccccn3)nn2)cc1` [DHK-2-11], the inhibition at 1 µM is under 40%.

For `NS(=O)(=O)c1nc2ccc(OCc3cn([C@@H](Cc4ccccc4)C(=O)N[C@@H]4c5ccccc5C[C@@H]4O)nn3)cc2s1` [DHK-2-70], the inhibition at 1 µM is under 40%.

In the case of `NS(=O)(=O)c1ccc(-c2cn([C@@H](Cc3ccccc3)C(=O)NC3CCCCC3)nn2)cc1` [DHK-2-12], the inhibition at 1 µM was under 40%.

As for `CC(C)[C@@H](C(=O)NC1CCCCC1)n1cc(COc2ccc3nc(S(N)(=O)=O)sc3c2)nn1` [DHK-2-36], the inhibition at 1 µM was under 40%.

With `CC(C)[C@@H](C(=O)N1CCN(c2ncccn2)CC1)n1cc(-c2ccc(S(N)(=O)=O)cc2)nn1` [DHK190], the inhibition at 1 µM was under 40%.

Take `CC(C)[C@@H](C(=O)NCc1nc2ccccc2n1C)n1cc(-c2ccc(S(N)(=O)=O)cc2)nn1` [DHK189]: the inhibition at 1 µM is under 40%.

Take `CCOC(=O)[C@@H](Cc1ccccc1)NC(=O)[C@H](C(C)C)n1cc(-c2ccc(S(N)(=O)=O)cc2)nn1` [DHK175]: the inhibition at 1 µM was under 40%.

Regarding `Cc1onc(-c2ccccc2)c1CNC(=O)[C@H](C(C)C)n1cc(COc2ccc3nc(S(N)(=O)=O)sc3c2)nn1` [DHK-2-39], the inhibition at 1 µM is under 40%.

For the compound `CC(C)[C@@H](C(=O)NCc1ccccn1)n1cc(-c2ccc(S(N)(=O)=O)cc2)nn1` [DHK178], the inhibition at 1 µM is under 40%.

For `CC(C)[C@@H](C(=O)N1CCN(c2ncccn2)CC1)n1cc(COc2ccc3nc(S(N)(=O)=O)sc3c2)nn1` [DHK-2-28], the inhibition at 1 µM was under 40%.

In the case of `CC(C)[C@@H](C(=O)NCc1ccc(C(F)(F)F)cc1)n1cc(-c2ccc(S(N)(=O)=O)cc2)nn1` [DHK168], the inhibition at 1 µM was under 40%.

`CCOC(=O)C1CCN(C(=O)[C@H](Cc2ccccc2)n2cc(-c3ccc(S(N)(=O)=O)cc3)nn2)CC1` [DHK-2-17]: the inhibition at 1 µM is under 40%.

Staying with this assay, now noted: Table 2, Libraries 4-7; sample concentrations 100 nM and 1000 nM, DNSA 200 μM; screening at 1 μM.
Consider `NS(=O)(=O)c1nc2ccc(OCc3cn([C@@H](Cc4ccccc4)C(=O)NCc4ccc(C(F)(F)F)cc4)nn3)cc2s1` [DHK-2-51], for which the “In Vitro Binding Assay (Library Screening)” value is “√”.
